Results published in patent US20050014812A1, “Benzimidazole compounds” (Fujisawa Pharmaceutical Co., Ltd., priority 2003, published 2005).

Tested on: C57BL/KsJ-db/db (db/db) mice
Experiment: Plasma glucose and triglyceride lowering in db/db mice (Experimental Example 1)
Type: in vivo
Conditions: female db/db mice, 10 mg/kg orally once daily for 7 days, fed state; lean (+m/+m) group = 100% inhibition, db/db control = 0%
Procedure: Female C57BL/KsJ-db/db (db/db) mice and C57BL/KsJ-+m/+m (lean) mice (5 weeks old) were purchased from Jackson Laboratory, and subjected to the test after 1-2 weeks of acclimating period. Animals were maintained on standard laboratory chow and water ad libitum.
Test compound was dissolved or suspended in 0.5% methylcellulose solution and administered orally once a day at a volume of 5 mL/kg of body weight.
• 4-({1-[(3,5-dichloro-2-pyridinyl)methyl]-2,4-dimethyl-1H-benzimidazol-6-yl}oxy)butanoic acid (Example 21) • 4-{[1-(2,4-dichlorobenzyl)-2-ethoxy-4-methyl-1H-benzimidazol-6-yl]oxy}butanoic acid (Example 39) • 2-{[(1-{[3-chloro-5-(trifluoromethyl)-2-pyridinyl]methyl}-2-methyl-1H-benzimidazol-6-yl)oxy]methyl}benzoic acid (Example 75) Test Schedule
At 6 weeks of age, blood was obtained from the retro-orbital sinus by capillary pipette with heparin under feeding condition. Mice were divided into groups matched for body weight, plasma glucose and triglyceride. From 6-7 weeks of age, test compound was administered orally once daily for 7 days. On the next morning of the last administration day, body weight was measured and blood was obtained under feeding condition, and plasma glucose and triglyceride were measured.
Plasma glucose and triglyceride were determined by a mutarotase.glucose oxidase method and a glycerol-3-phosphate oxidase.3,5-dimethoxy-N-ethyl-N-(2′-hydroxy-3′-sulfopropyl)aniline natrium method, respectively, using assay kits from Wako Pure Chemical Industries, Ltd. (Osaka, Japan).
Values of plasma glucose and triglyceride for the lean group (+m/+m) were set as 100% inhibition, and for the control group (db/db) as 0% inhibition. The inhibition rate of plasma glucose and triglyceride for the test group was determined.

| SMILES | Inhibition rate of plasma glucose | Inhibition rate of plasma triglyceride |
| --- | --- | --- |
| Cc1cc(OCCCC(=O)O)cc2c1nc(C)n2Cc1ncc(Cl)cc1Cl [Example 21, 4-({1-[(3,5-dichloro-2-pyridinyl)methyl]-2,4-dimethyl-1H-benzimidazol-6-yl}oxy)butanoic acid] | 41% | 55% |
| Cc1nc2ccc(OCc3ccccc3C(=O)O)cc2n1Cc1ncc(C(F)(F)F)cc1Cl [Example 75, 2-{[(1-{[3-chloro-5-(trifluoromethyl)-2-pyridinyl]methyl}-2-methyl-1H-benzimidazol-6-yl)oxy]methyl}benzoic acid] | 72% | 89% |
| CCOc1nc2c(C)cc(OCCCC(=O)O)cc2n1Cc1ccc(Cl)cc1Cl [Example 39, 4-{[1-(2,4-dichlorobenzyl)-2-ethoxy-4-methyl-1H-benzimidazol-6-yl]oxy}butanoic acid] | 45% | 60% |
